From patent US12527862B2, “Bactericidal/permeability increasing protein for use in a method of immunization, preferably as an adjuvant in a method of vaccination” (UNIVERSITÄT REGENSBURG, priority 2018, dated 2026)

Tests used:
[1] = target: T1, BPI (Homo sapiens, UniProt P17213); assay: MicroScale Thermophoresis (MST) binding of ligands to BPI; details: 5 nM labeled protein, 25° C. (FIGS. 5A, 5C, 8A, 8B)
T1 construct: aa32-487 of the huBPI respectively aa28-483 of muBPI; HA signal peptide (N); made in house; host or cells: HEK293T
T1 sequence (P17213 32-487): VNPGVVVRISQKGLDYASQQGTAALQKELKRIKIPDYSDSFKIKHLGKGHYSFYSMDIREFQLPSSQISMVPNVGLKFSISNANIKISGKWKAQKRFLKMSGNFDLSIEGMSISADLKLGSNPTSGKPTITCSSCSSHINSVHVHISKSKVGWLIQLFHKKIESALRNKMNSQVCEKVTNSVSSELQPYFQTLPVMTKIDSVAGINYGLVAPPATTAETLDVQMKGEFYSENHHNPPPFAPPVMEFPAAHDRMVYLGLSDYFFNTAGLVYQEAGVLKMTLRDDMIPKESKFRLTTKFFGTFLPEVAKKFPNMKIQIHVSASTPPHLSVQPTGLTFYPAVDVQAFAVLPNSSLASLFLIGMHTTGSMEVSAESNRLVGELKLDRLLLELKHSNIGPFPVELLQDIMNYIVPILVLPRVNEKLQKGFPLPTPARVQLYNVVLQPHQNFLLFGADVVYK
Procedure: (§1) BPIN (A) and rBPI were labeled with NT647 in PBS pH 7.4 (Monolith NT™ Protein Labeling Kit RED-NHS, NanoTemper Technologies, Munich, Germany). Concentration of labeled protein was determined using the NanoDrop (ThermoScientific, Wilmington, NC, USA) and Bradford assay (Promega, Mannheim, Germany). MST binding experiments were carried out with 5 nM labeled protein in binding buffer (10 mM HEPES pH 7.4, 150 mM NaCl, 0.1% Tween) with 0.196-6,436 nM of Pam3CSK4 (bLP), or 0.61-20,000 nM of LTA SPΔlgt (LTA), or >0.61-20,000 nM WTA SPΔlgt (WTA) at 20%-40% MST power, 20% LED power in premium capillaries on a Monolith NT.115 pico device at 25° C. (NanoTemper Technologies, Munich, Germany). Pam3CSK4, (bLP) was obtained from EMC Microcollections GmbH (Tübingen, Germany), LTA and WTA were prepared as published previously. MST timetraces were recorded, and the temperature jump and thermophoresis or thermophoresis was analyzed. Binding graphs of each independent experiment were normalized to the fraction bound.
(§2) MST was performed as described for example 5. PiLAM and PiLM were ordered from Invivogen (San Diego, CA, USA). BPI binding assays were performed by incubating Streptavidin-coated 96-well plates (Nunc™ Immobilizer™ Streptavidin F96 clear, Thermo Fisher Scientific, Waltham, MA, USA) with LPS biotin (2 μg/ml) in PBS overnight at 23° C. with gentle agitation. After washing with assay buffer (150 mM NaCl, 50 mM HEPES, Sigma Aldrich, Taufkirchen, Germany) containing 0.01% Casein, plates were blocked with 10 g/l BSA (Sigma Aldrich, Taufkirchen, Germany) at 37° C. and washed again. Thereafter, ligands were preincubated with 20 nM BPI in assay buffer containing 1 g/l BSA for 30 min and loaded onto the plates. Bound BPI was detected by murine anti-human BPI monoclonal antibody (Cat.-No. HM2042, Hycult Biotech, Uden, Netherlands) and HRP-conjugated rabbit anti-mouse IgG (Cat.-No. 315-035-048, Dianova, Hamburg, Germany). […] After addition of 1 N HCl, absorbance was measured at 450 nm. Absorbance indicates binding, the higher the absorbance the higher the binding of BPI to the coated well. […]

[2] = target: T1, BPI; assay: BPI binding assay on Streptavidin-coated plates (biotinylated LPS or ODN 1826), direct and competitive
Procedure: FIG. 7 depicts the binding of BPI to TLR ligands. […] Competition of binding was assessed for different variants of CpG ODNs ([…]) and the TLR3 agonist Poly(I:C) in ODN 1826 coated plates.
Streptavidin-coated plates were incubated with biotinylated LPS (n=3). Competition of binding was assessed for lipoarabinomannan as exemplified for phosphatidyl-inositol lipoarabinomannan (PiLAM).
MST was performed as described for example 5. PiLAM and PiLM were ordered from Invivogen (San Diego, CA, USA). BPI binding assays were performed by incubating Streptavidin-coated 96-well plates (Nunc™ Immobilizer™ Streptavidin F96 clear, Thermo Fisher Scientific, Waltham, MA, USA) with LPS biotin (2 μg/ml) in PBS overnight at 23° C. with gentle agitation. After washing with assay buffer (150 mM NaCl, 50 mM HEPES, Sigma Aldrich, Taufkirchen, Germany) containing 0.01% Casein, plates were blocked with 10 g/l BSA (Sigma Aldrich, Taufkirchen, Germany) at 37° C. and washed again. Thereafter, ligands were preincubated with 20 nM BPI in assay buffer containing 1 g/l BSA for 30 min and loaded onto the plates. Bound BPI was detected by murine anti-human BPI monoclonal antibody (Cat.-No. HM2042, Hycult Biotech, Uden, Netherlands) and HRP-conjugated rabbit anti-mouse IgG (Cat.-No. 315-035-048, Dianova, Hamburg, Germany). TMB (BD OptEIA™ TMB Substrate Reagent Set, BD Biosciences, Heidelberg, Germany) was used as a substrate for peroxidase. After addition of 1 N HCl, absorbance was measured at 450 nm. Absorbance indicates binding, the higher the absorbance the higher the binding of BPI to the coated well. Preincubation with a BPI ligand inhibits binding in a concentration-dependent manner.

[3] = system: BMDCs; assay: Cytokine protein secretion by BMDCs (Luminex); type: cell-based, C57BL/6J mice; details: Zymd 5 μg/ml, bLP 10 nM; Luminex, n>7, 4h (FIG. 3)
Procedure: All methods mentioned in this example were carried out as described in the preceding examples. Cells were stimulated with Zymosan depleted (Zymd, 5 μg/ml) from Invivogen (San Diego, CA, USA) or (R)-Pam3CSK4 (bLP, 10 nM) from EMC Microcollections GmbH (Tübingen, Germany). Protein secretion analysis was performed using the supernatants.
To quantify the interleukin and chemokine protein-level after stimulation with huBPI, Zymd, and (R)-Pam CSK4, a multiplex-system was used and determined by using the Luminex® technology (Austin, TX, USA). The cytokines were captured with anti-mouse capture-antibodies and detected by biotinylated antibodies specific for the respective protein (Table 3). Protein concentrations were calculated using a reconstituted standard curve of the analyzed proteins (SM039, #LMC4031, Lot #1438354; Thermo Fisher Scientific; Standard Mix 1a, #EPX010-20603-901, Lot #111709101, eBioscience).

[4] = target: BPI; assay: MicroScale Thermophoresis (MST) binding of ligands to BPI; set-up: species or system human; details: MST, 0.196-6,436 nM Pam3CSK4 (FIG. 5A)
Procedure: as §1, §2

[5] = system: bone-marrow derived dendritic cells; assay: Microarray gene expression analysis in BMDCs; type: cell-based, C57BL/6J mice; details: 200 nM huBPI or muBPI, 4 h, microarray (FIG. 2A)
Procedure: All methods mentioned in this example were carried out as described in Example 1. BMDCs were seeded into a tissue-culture-treated 96-well plate in VLE-RPMI 1640 media (10% FCS, 10% Penicillin-Streptomycin, 50 μM β-Mercaptoethanol) and stimulated with 200 nM huBPI or muBPI. 4 h after stimulation, gene expression analysis was performed by microarray analysis (Affymetrix Mouse Gene 2.0 ST, FIGS. 2A and 2B).

## phosphatidyl-inositol lipomannan [PiLM]
[1]
  binding to BPI (MST): Binding of phosphatidyl-inositol lipomannan (PiLM) to BPI is shown

## phosphatidyl-inositol lipoarabinomannan [PiLAM]
[2]; LPS biotin 2 μg/ml, 20 nM BPI, n=3 (FIG. 8C)
  competition of BPI binding in biotinylated LPS coated plates: binding is conserved

## polyinosinic: polycytidylic acid [Poly(I:C)]
[2]; biotinylated ODN 1826, n=3 (FIG. 7B)
  competition of BPI binding in ODN 1826 coated plates: competitive binding was present

## ODN 1826
[2]; Streptavidin-coated plates, absorbance 450 nm, n=4 (FIG. 7A)
  binding of BPI to plate-bound biotinylated ligand: Binding of BPI to both LPS and CpG ODN was observed

## (R)-Pam3CSK4 [bLP]
[3]
  stimulatory effect on the expression of IL-6 (IL-6 level), BPI vs Zymd vs bLP: similar
[4]
  Affinity of BPI to bLP: within a nanomolar range
[1]
  binding to BPI (MST): shown to bind to bLPs

B1: murine BPI: recombinant murine BPI, aa28-483 of muBPI, expressed in HEK293T cells (protein, listed as Mus musculus)
chain: TDPGFVAMISQKGLDFACQQGVVELQKELQAISVPDFSGVFKIKHLGKGSYEFYSMAVDGFHIPNPKIEMLPSDGLRVFIKDASIKINGKWMSRKNFLKAGGNFELSIQGVSISTDLILGSDSSGHITTICSNCDSHIDSVHIKISGSMLGWLIRLFHRKIETSLKNIIYKKICKIVRDSVSSKLQPYLKTLSVITRVDDVTSVDYSLLAPLTTTNQFLEGQLKGEFFWRGHRDPLPIHPPVMRFVPNGAYMVCMGISDYFFNTEVLAYQQSGTLKMTLGGQLLSNNGRFQLNTDFLRTFLPKVAKMFPSMGVQLLISAPVPVHLSIQPSGLSFNPKLETQAFVVLPNASLVPLFVLGMKTNASLEVDAEENRLVGEMKLGSRWLLELKESKFGPFKVEYLEDVINYLVSTLVLPKINERLRRGFPLPLPAGIRFSHFTFYPYQNFLLLEADLHLI
[5]
  immunostimulatory effect on BMDCs (gene expression): shows an immunostimulatory effect on BMDCs
